Experimental data reported in patent publication US9895352B2, “Indolinone compounds and uses thereof” (Oncternal Therapeutics, Inc., priority 2014, dated 2018).
pIC50: −log10 of the molar value. Where two headings read alike, the source gives them in different places.

Key:
in vitro [1] = conditions: rat, liver microsomes
[2] = not given; remark: listed apart in the source
[3] = not given; remark: listed apart in the source
[4] = not given; remark: listed apart in the source
in vitro [5] = conditions: mouse
[6] = test system: SKES cells (Ewing Sarcoma cell line); assay: CCK-8 tetrazolium tumor cell growth inhibition, SKES; assay type: cell-based; conditions: Homo sapiens, 72 h, SKES cells, 3 days with compound, CCK-8 (TABLE 3)
Protocol: A modified tetrazolium salt assay using the CCK-8 kit (Sigma-Aldrich; St Louis, Mo.) was used to measure the inhibition of human tumor cell growth. Tumor cells (5000-7500 per well) were added to 96 well plates and allowed to attach for 4-5 hours. Compounds were serially diluted and added in triplicate at a concentration of 0.02 to 5 μM. DMSO was included as a vehicle control. Cells were incubated in the presence of compound for 3 days. After incubation CCK-8 reagent was added to each well and incubated for 2-4 hours. Viable cells were quantitated spectrophotometrically at a wavelength of 450 nm. Percent viability of each sample was calculated from the A450 values as follows: % viability=(A450 nm sample/A450 nm DMSO-treated cells×100). […] IC50 activities of particular compounds were determined using SKES cells (Ewing Sarcoma cell line).

[7] = Metabolic stability, half-life and clearance in human liver microsomes; assay type: in vitro ADME; conditions: for CLhep: hepatic clearance where blood flow = 20 mL/min/kg
Protocol: (§1) Half-life and clearance rates for certain compounds were assayed with human liver microsomes and human hepatocytes. […] At each time point (0, 5, 15, 30, 60, 90 min) the reactions were stopped, vortexed and centrifuged. Supernatents were frozen until LC/MS/MS analysis. The results for human liver microsomes and human hepactocytes are summarized in TABLE 9, and TABLE 10, respectively. Certain compounds were assayed with human liver microsomes (HLM) and human hepatocytes, and metabolites were detected. Briefly, metabolic stability was tested at one TA concentration (e.g., 1 μM) in duplicate. […] Incubations were saved and used for metabolite identification using LC/MS/MS. […] The slope of the linear regression from log percentage remaining versus incubation time relationships (−k) was determined by linear regression fitting. From the individual log percentage remaining time profiles, the mean half-life and intrinsic clearance were reported. UHPLC-HRMS or UHPLC-MS/MS experiment was performed on the authentic test articles to check for possible common fragment ions. […] The metabolites were summarized based on their mass spectrometry peak areas.

[8] = Metabolic stability, half-life and clearance in human hepatocytes; assay type: in vitro ADME; conditions: for % remaining / half-life: Human hepatocytes; for CLhep: human hepatocytes, hepatic clearance where blood flow = 20 mL/min/kg
Protocol: as §1

[9] = Half-life in mouse hepatocytes; assay type: in vitro ADME; conditions: read-out: Half life of cmpds
Protocol: (§2) In another study, metabolism of compounds in hepatocytes from various species was examined. Hepatocytes were contacted with a compound, and the half-life of the compound was determined.

[10] = Half-life in rat hepatocytes; assay type: in vitro ADME; conditions: for half-life: read-out: Half life of cmpds
Protocol: as §2

[11] = Half-life in dog hepatocytes; assay type: in vitro ADME; conditions: for half-life: read-out: Half life of cmpds
Protocol: as §2

[12] = Half-life in human hepatocytes; assay type: in vitro ADME; conditions: read-out: Half life of cmpds
Protocol: as §2

[13] = human liver microsome, no cofactor, 60 min

O=C(CC1(O)C(=O)Nc2c(Cl)ccc(Cl)c21)c1ccc(C2CC2)cc1F (single isomer, unassigned) [Cmpd 39, 4,7-Dichloro-3-(2-(4-cyclopropyl-2-fluorophenyl)-2-oxoethyl)-3-hydroxyindolin-2-one]
Remaining (NCF = 60 min) [13]: 100.0% | half-life (in vitro [1]): 3 min

O=C(O)Cc1ccccc1Nc1c(Cl)cccc1Cl [Diclofenac, reference compound]
Remaining (NCF = 60 min) (human, microsomes, 1 h): 77.8% | Remaining (NCF = 60 min) ([2]; rat, microsomes, 1 h): 94.1% | Remaining (NCF = 60 min) ([3]; mouse, microsomes, 1 h): 88.1% | Remaining (NCF = 60 min) ([4]; dog, microsomes, 1 h): 89.6% | half-life (in vitro [5]; microsomes): 39.2 min

O=C(CC1(O)C(=O)Nc2c(Cl)ccc(Cl)c21)c1ccc(C2CC2)c(F)c1 (single isomer, unassigned) [Cmpd 37, 4,7-Dichloro-3-(2-(4-cyclopropyl-3-fluorophenyl)-2-oxoethyl)-3-hydroxyindolin-2-one]
Remaining (NCF = 60 min) [13]: 103.4% | half-life (in vitro [1]): 3.5 min | half-life (in vitro [5]; liver microsomes): 20.7 min

C[C@]12CC[C@H]3[C@@H](CCC4=CC(=O)CC[C@@]43C)[C@@H]1CC[C@@H]2O [Testosterone, reference compound]
Remaining (NCF = 60 min) [13]: 88.1% | Remaining (NCF = 60 min) ([2]; rat liver microsome, no cofactor, 60 min): 87.3% | Remaining (NCF = 60 min) ([3]; mouse liver microsome, no cofactor, 60 min): 83.6% | Remaining (NCF = 60 min) ([4]; dog liver microsome, no cofactor, 60 min): 91.0% | half-life (in vitro [5]; microsomes): 3.3 min

COc1ccc(C(=O)CC2(O)C(=O)Nc3c(Cl)ccc(Cl)c32)cc1 (racemic) [Cmpd 1, 4,7-Dichloro-3-hydroxy-3-[2-(4-methoxyphenyl-2-oxoethyl)]-1,3-dihydroindol-2-one]
pIC50 [6]: > 5.30 | % remaining [7]: 5% | half-life [7]: 10.3 min | CLhep [7]: 17.28 mL/min/kg | % remaining [8]: 48% | half-life [8]: 226 min | CLhep [8]: 8.7 mL/min/kg | half-life [9]: 30.9 min | half-life [10]: 14.2 min | half-life [11]: 16.7 min | half-life [12]: 45.5 min

CCOc1ccc2ccc(=O)oc2c1 [7-Ethoxycoumarin, reference compound]
half-life [9]: 37.9 min | half-life [10]: 38.2 min | Half life of cmpds [11]: 9.14 min | half-life [12]: 45.3 min

O=c1ccc2ccc(O)cc2o1 [7-Hydroxycoumarin, reference compound]
half-life [9]: 15.8 min | Half life of cmpds [10]: 12.41 min | half-life [11]: 9.38 min | half-life [12]: 20.8 min

CNc1ccc(C(=O)CC2(O)C(=O)Nc3c(Cl)ccc(Cl)c32)cc1 (racemic) [Cmpd 7, 4,7-dichloro-3-hydroxy-3-[2-[4-(methylamino)phenyl]-2-oxoethyl]-1H-indol-2-one]
% remaining [7]: 49% | half-life [7]: > 45 min | CLhep [7]: ~11.54 mL/min/kg | % remaining [8]: 100% | half-life [8]: > 240 min | CLhep [8]: <8.7 mL/min/kg
